We go through 20 substances from the OligoGym collection.

The target in this data set is UBE2D3. Briefly: reporter assay of Huesken 2005. The following applies: siRNA.

Oligonucleotides are given in HELM: sugar(base)linkage, 5' to 3'; d 2'-deoxyribose, r ribose, m 2'-O-methylribose, p phosphate. ss, as = sense and antisense strand
Further: test concentration or dose not given here.

In turn, “RNA1{r(G)p.r(C)p.r(A)p.r(A)p.r(G)p.r(C)p.r(C)p.r(A)p.r(C)p.r(A)p.r(A)p.r(U)p.r(U)p.r(A)p.r(U)p.r(G)p.r(G)p.r(G)p.r(A)p.d(T)p.d(T)}|RNA2{r(U)p.r(C)p.r(C)p.r(C)p.r(A)p.r(U)p.r(A)p.r(A)p.r(U)p.r(U)p.r(G)p.r(U)p.r(G)p.r(G)p.r(C)p.r(U)p.r(U)p.r(G)p.r(C)p.d(C)p.d(A)}$$$RNA1{StrandType:ss}|RNA2{StrandType:as}$” showed a normalised inhibition (eCFP-eYFP dual reporter) of 75.8%.

Substance “RNA1{r(U)p.r(G)p.r(C)p.r(A)p.r(U)p.r(U)p.r(U)p.r(A)p.r(C)p.r(A)p.r(A)p.r(C)p.r(A)p.r(A)p.r(G)p.r(A)p.r(A)p.r(U)p.r(U)p.d(T)p.d(T)}|RNA2{r(A)p.r(A)p.r(U)p.r(U)p.r(C)p.r(U)p.r(U)p.r(G)p.r(U)p.r(U)p.r(G)p.r(U)p.r(A)p.r(A)p.r(A)p.r(U)p.r(G)p.r(C)p.r(A)p.d(A)p.d(C)}$$$RNA1{StrandType:ss}|RNA2{StrandType:as}$” yielded a normalised inhibition (eCFP-eYFP dual reporter) of 83.3%.

The substance “RNA1{r(U)p.r(A)p.r(U)p.r(G)p.r(G)p.r(G)p.r(A)p.r(C)p.r(C)p.r(U)p.r(A)p.r(A)p.r(U)p.r(G)p.r(A)p.r(C)p.r(A)p.r(G)p.r(C)p.d(T)p.d(T)}|RNA2{r(G)p.r(C)p.r(U)p.r(G)p.r(U)p.r(C)p.r(A)p.r(U)p.r(U)p.r(A)p.r(G)p.r(G)p.r(U)p.r(C)p.r(C)p.r(C)p.r(A)p.r(U)p.r(A)p.d(A)p.d(T)}$$$RNA1{StrandType:ss}|RNA2{StrandType:as}$” came in with a normalised inhibition (eCFP-eYFP dual reporter) of 44.4%.

Regarding “RNA1{r(G)p.r(A)p.r(U)p.r(U)p.r(G)p.r(C)p.r(A)p.r(C)p.r(G)p.r(G)p.r(A)p.r(U)p.r(C)p.r(U)p.r(A)p.r(U)p.r(A)p.r(A)p.r(A)p.d(T)p.d(T)}|RNA2{r(U)p.r(U)p.r(U)p.r(A)p.r(U)p.r(A)p.r(G)p.r(A)p.r(U)p.r(C)p.r(C)p.r(G)p.r(U)p.r(G)p.r(C)p.r(A)p.r(A)p.r(U)p.r(C)p.d(T)p.d(C)}$$$RNA1{StrandType:ss}|RNA2{StrandType:as}$”, the normalised inhibition (eCFP-eYFP dual reporter) came out at 92.4%.

As for “RNA1{r(A)p.r(C)p.r(G)p.r(G)p.r(A)p.r(U)p.r(C)p.r(U)p.r(A)p.r(U)p.r(A)p.r(A)p.r(A)p.r(A)p.r(C)p.r(A)p.r(G)p.r(A)p.r(C)p.d(T)p.d(T)}|RNA2{r(G)p.r(U)p.r(C)p.r(U)p.r(G)p.r(U)p.r(U)p.r(U)p.r(U)p.r(A)p.r(U)p.r(A)p.r(G)p.r(A)p.r(U)p.r(C)p.r(C)p.r(G)p.r(U)p.d(G)p.d(C)}$$$RNA1{StrandType:ss}|RNA2{StrandType:as}$”, the normalised inhibition (eCFP-eYFP dual reporter) was 68.3%.

For “RNA1{r(G)p.r(G)p.r(U)p.r(C)p.r(C)p.r(A)p.r(G)p.r(U)p.r(U)p.r(G)p.r(G)p.r(G)p.r(G)p.r(A)p.r(U)p.r(G)p.r(A)p.r(U)p.r(A)p.d(T)p.d(T)}|RNA2{r(U)p.r(A)p.r(U)p.r(C)p.r(A)p.r(U)p.r(C)p.r(C)p.r(C)p.r(C)p.r(A)p.r(A)p.r(C)p.r(U)p.r(G)p.r(G)p.r(A)p.r(C)p.r(C)p.d(T)p.d(G)}$$$RNA1{StrandType:ss}|RNA2{StrandType:as}$”, the normalised inhibition (eCFP-eYFP dual reporter) is 93.7%.

In turn, “RNA1{r(C)p.r(A)p.r(G)p.r(U)p.r(A)p.r(A)p.r(U)p.r(G)p.r(G)p.r(C)p.r(A)p.r(G)p.r(C)p.r(A)p.r(U)p.r(U)p.r(U)p.r(G)p.r(U)p.d(T)p.d(T)}|RNA2{r(A)p.r(C)p.r(A)p.r(A)p.r(A)p.r(U)p.r(G)p.r(C)p.r(U)p.r(G)p.r(C)p.r(C)p.r(A)p.r(U)p.r(U)p.r(A)p.r(C)p.r(U)p.r(G)p.d(T)p.d(T)}$$$RNA1{StrandType:ss}|RNA2{StrandType:as}$” had a normalised inhibition (eCFP-eYFP dual reporter) of 97.4%.

In turn, “RNA1{r(G)p.r(A)p.r(U)p.r(C)p.r(C)p.r(A)p.r(A)p.r(A)p.r(C)p.r(C)p.r(C)p.r(A)p.r(G)p.r(A)p.r(U)p.r(G)p.r(A)p.r(C)p.r(C)p.d(T)p.d(T)}|RNA2{r(G)p.r(G)p.r(U)p.r(C)p.r(A)p.r(U)p.r(C)p.r(U)p.r(G)p.r(G)p.r(G)p.r(U)p.r(U)p.r(U)p.r(G)p.r(G)p.r(A)p.r(U)p.r(C)p.d(A)p.d(C)}$$$RNA1{StrandType:ss}|RNA2{StrandType:as}$” displayed a normalised inhibition (eCFP-eYFP dual reporter) of 56.5%.

On to “RNA1{r(U)p.r(G)p.r(G)p.r(G)p.r(A)p.r(C)p.r(C)p.r(U)p.r(A)p.r(A)p.r(U)p.r(G)p.r(A)p.r(C)p.r(A)p.r(G)p.r(C)p.r(C)p.r(C)p.d(T)p.d(T)}|RNA2{r(G)p.r(G)p.r(G)p.r(C)p.r(U)p.r(G)p.r(U)p.r(C)p.r(A)p.r(U)p.r(U)p.r(A)p.r(G)p.r(G)p.r(U)p.r(C)p.r(C)p.r(C)p.r(A)p.d(T)p.d(A)}$$$RNA1{StrandType:ss}|RNA2{StrandType:as}$”, for which the normalised inhibition (eCFP-eYFP dual reporter) was 48.6%.

Turning to “RNA1{r(A)p.r(A)p.r(U)p.r(U)p.r(C)p.r(A)p.r(U)p.r(U)p.r(U)p.r(U)p.r(C)p.r(C)p.r(U)p.r(A)p.r(C)p.r(A)p.r(G)p.r(A)p.r(C)p.d(T)p.d(T)}|RNA2{r(G)p.r(U)p.r(C)p.r(U)p.r(G)p.r(U)p.r(A)p.r(G)p.r(G)p.r(A)p.r(A)p.r(A)p.r(A)p.r(U)p.r(G)p.r(A)p.r(A)p.r(U)p.r(U)p.d(G)p.d(T)}$$$RNA1{StrandType:ss}|RNA2{StrandType:as}$”, the normalised inhibition (eCFP-eYFP dual reporter) turned out to be 62.3%.

The substance “RNA1{r(U)p.r(C)p.r(U)p.r(G)p.r(C)p.r(A)p.r(G)p.r(G)p.r(U)p.r(C)p.r(C)p.r(A)p.r(G)p.r(U)p.r(U)p.r(G)p.r(G)p.r(G)p.r(G)p.d(T)p.d(T)}|RNA2{r(C)p.r(C)p.r(C)p.r(C)p.r(A)p.r(A)p.r(C)p.r(U)p.r(G)p.r(G)p.r(A)p.r(C)p.r(C)p.r(U)p.r(G)p.r(C)p.r(A)p.r(G)p.r(A)p.d(A)p.d(C)}$$$RNA1{StrandType:ss}|RNA2{StrandType:as}$” had a normalised inhibition (eCFP-eYFP dual reporter) of 32.9%.

In turn, “RNA1{r(C)p.r(C)p.r(A)p.r(U)p.r(U)p.r(U)p.r(G)p.r(U)p.r(U)p.r(C)p.r(A)p.r(C)p.r(U)p.r(G)p.r(C)p.r(U)p.r(A)p.r(U)p.r(G)p.d(T)p.d(T)}|RNA2{r(C)p.r(A)p.r(U)p.r(A)p.r(G)p.r(C)p.r(A)p.r(G)p.r(U)p.r(G)p.r(A)p.r(A)p.r(C)p.r(A)p.r(A)p.r(A)p.r(U)p.r(G)p.r(G)p.d(A)p.d(T)}$$$RNA1{StrandType:ss}|RNA2{StrandType:as}$” gave a normalised inhibition (eCFP-eYFP dual reporter) of 94.5%.

For “RNA1{r(U)p.r(G)p.r(C)p.r(U)p.r(U)p.r(U)p.r(A)p.r(A)p.r(C)p.r(A)p.r(A)p.r(U)p.r(U)p.r(U)p.r(C)p.r(U)p.r(A)p.r(A)p.r(A)p.d(T)p.d(T)}|RNA2{r(U)p.r(U)p.r(U)p.r(A)p.r(G)p.r(A)p.r(A)p.r(A)p.r(U)p.r(U)p.r(G)p.r(U)p.r(U)p.r(A)p.r(A)p.r(A)p.r(G)p.r(C)p.r(A)p.d(G)p.d(G)}$$$RNA1{StrandType:ss}|RNA2{StrandType:as}$”, the normalised inhibition (eCFP-eYFP dual reporter) amounted to 92%.

In turn, “RNA1{r(C)p.r(U)p.r(A)p.r(U)p.r(G)p.r(U)p.r(G)p.r(A)p.r(U)p.r(C)p.r(C)p.r(A)p.r(A)p.r(A)p.r(C)p.r(C)p.r(C)p.r(A)p.r(G)p.d(T)p.d(T)}|RNA2{r(C)p.r(U)p.r(G)p.r(G)p.r(G)p.r(U)p.r(U)p.r(U)p.r(G)p.r(G)p.r(A)p.r(U)p.r(C)p.r(A)p.r(C)p.r(A)p.r(U)p.r(A)p.r(G)p.d(C)p.d(A)}$$$RNA1{StrandType:ss}|RNA2{StrandType:as}$” gave a normalised inhibition (eCFP-eYFP dual reporter) of 95.8%.

Substance “RNA1{r(U)p.r(C)p.r(C)p.r(A)p.r(U)p.r(U)p.r(U)p.r(G)p.r(U)p.r(U)p.r(C)p.r(A)p.r(C)p.r(U)p.r(G)p.r(C)p.r(U)p.r(A)p.r(U)p.d(T)p.d(T)}|RNA2{r(A)p.r(U)p.r(A)p.r(G)p.r(C)p.r(A)p.r(G)p.r(U)p.r(G)p.r(A)p.r(A)p.r(C)p.r(A)p.r(A)p.r(A)p.r(U)p.r(G)p.r(G)p.r(A)p.d(T)p.d(A)}$$$RNA1{StrandType:ss}|RNA2{StrandType:as}$” registered a normalised inhibition (eCFP-eYFP dual reporter) of 98.4%.

For “RNA1{r(U)p.r(G)p.r(A)p.r(C)p.r(A)p.r(A)p.r(U)p.r(U)p.r(C)p.r(A)p.r(U)p.r(U)p.r(U)p.r(U)p.r(C)p.r(C)p.r(U)p.r(A)p.r(C)p.d(T)p.d(T)}|RNA2{r(G)p.r(U)p.r(A)p.r(G)p.r(G)p.r(A)p.r(A)p.r(A)p.r(A)p.r(U)p.r(G)p.r(A)p.r(A)p.r(U)p.r(U)p.r(G)p.r(U)p.r(C)p.r(A)p.d(A)p.d(A)}$$$RNA1{StrandType:ss}|RNA2{StrandType:as}$”, the normalised inhibition (eCFP-eYFP dual reporter) worked out at 55.4%.

In turn, “RNA1{r(C)p.r(U)p.r(U)p.r(U)p.r(U)p.r(A)p.r(U)p.r(C)p.r(C)p.r(A)p.r(U)p.r(U)p.r(U)p.r(G)p.r(U)p.r(U)p.r(C)p.r(A)p.r(C)p.d(T)p.d(T)}|RNA2{r(G)p.r(U)p.r(G)p.r(A)p.r(A)p.r(C)p.r(A)p.r(A)p.r(A)p.r(U)p.r(G)p.r(G)p.r(A)p.r(U)p.r(A)p.r(A)p.r(A)p.r(A)p.r(G)p.d(A)p.d(A)}$$$RNA1{StrandType:ss}|RNA2{StrandType:as}$” registered a normalised inhibition (eCFP-eYFP dual reporter) of 27%.

“RNA1{r(U)p.r(U)p.r(C)p.r(A)p.r(U)p.r(U)p.r(U)p.r(U)p.r(C)p.r(C)p.r(U)p.r(A)p.r(C)p.r(A)p.r(G)p.r(A)p.r(C)p.r(U)p.r(A)p.d(T)p.d(T)}|RNA2{r(U)p.r(A)p.r(G)p.r(U)p.r(C)p.r(U)p.r(G)p.r(U)p.r(A)p.r(G)p.r(G)p.r(A)p.r(A)p.r(A)p.r(A)p.r(U)p.r(G)p.r(A)p.r(A)p.d(T)p.d(T)}$$$RNA1{StrandType:ss}|RNA2{StrandType:as}$” came in with a normalised inhibition (eCFP-eYFP dual reporter) of 85%.

As for “RNA1{r(U)p.r(A)p.r(U)p.r(C)p.r(A)p.r(A)p.r(G)p.r(G)p.r(C)p.r(G)p.r(G)p.r(U)p.r(G)p.r(U)p.r(A)p.r(U)p.r(U)p.r(C)p.r(U)p.d(T)p.d(T)}|RNA2{r(A)p.r(G)p.r(A)p.r(A)p.r(U)p.r(A)p.r(C)p.r(A)p.r(C)p.r(C)p.r(G)p.r(C)p.r(C)p.r(U)p.r(U)p.r(G)p.r(A)p.r(U)p.r(A)p.d(T)p.d(G)}$$$RNA1{StrandType:ss}|RNA2{StrandType:as}$”, the normalised inhibition (eCFP-eYFP dual reporter) came to 99.5%.

For “RNA1{r(A)p.r(G)p.r(G)p.r(U)p.r(U)p.r(G)p.r(C)p.r(A)p.r(U)p.r(U)p.r(U)p.r(A)p.r(C)p.r(A)p.r(A)p.r(C)p.r(A)p.r(A)p.r(G)p.d(T)p.d(T)}|RNA2{r(C)p.r(U)p.r(U)p.r(G)p.r(U)p.r(U)p.r(G)p.r(U)p.r(A)p.r(A)p.r(A)p.r(U)p.r(G)p.r(C)p.r(A)p.r(A)p.r(C)p.r(C)p.r(U)p.d(T)p.d(A)}$$$RNA1{StrandType:ss}|RNA2{StrandType:as}$”, the normalised inhibition (eCFP-eYFP dual reporter) was 86.6%.
